For four compounds, Normal melting temperature results are on record in the NIST ThermoML archive (doi:10.1021/je020163y).

The structures appear in SMILES notation. Numbers after ± are expanded uncertainties.

For the series the following is noted: Crystal; visual observation.
Turning to `Cc1cc(O)c2c(=O)c3ccccc3sc2c1` [1-hydroxy3-methylthioxanthone], the Normal melting temperature came to 149 ± 1 °C.
In the case of `O=c1c2ccccc2sc2cccc(O)c12` [1-hydroxythioxanthone] it was 119 ± 1 °C; in that of `O=c1c2ccccc2sc2ccccc12` [thioxanthone], 209 ± 2 °C.
With `Cc1cc(O)c2c(=O)c3ccccc3sc2c1O` [1,4-dihydroxy-3-methylthioxanthone], the Normal melting temperature stood at 240 ± 4 °C.
